Test results published in paper PMC6269910 (Molecules, 2013).
Like-named read-outs stand apart in the source and are kept apart here.

How the values were obtained:
[1] = test system: carrageenan-induced hind paw edema; assay: Carrageenan-induced hind paw edema model; format: in vivo, mice
Procedure: Locally bred balb/c mice of both sexes (30-35 g) were purchased from the animal breeding laboratories of Inonu University ([…], Turkey). The animals were fed a standard pellet diet and water ad libitum in a temperature-controlled room. On the day before the treatments, food was withdrawn, but the animals were allowed free access of water. The allocation of animals to different groups was randomized, and the experiments were carried out under blind conditions. Mice used in the present study were cared for in accordance with the directory of the Inonu University Animal Care Unit, which applies the guidelines of the National Institutes of Health on laboratory animal welfare. Procedures involving animals and their care were conducted in conformity with international laws and policies and animal studies accepted by Inonu University Ethical Council (2011/A17). Test samples, suspended in a mixture of distilled water and 0.5% sodium carboxymethyl cellulose (CMC), were given orally to the animals. The control group animals received the same experimental handling as those of the test groups, except that the drug treatment was replaced with appropriate volumes of the dosing vehicle. […] For the preliminary activity screening, each test group was composed of four mice. […] Because of the daily changing circumstance, we used another control group for each experiment. For the determination of the effects on carrageenan-induced paw oedema, the modified method of Kasahara et al. was employed. One hour after the oral administration of either test sample or dosing vehicle, each mouse was injected with a freshly prepared (0.5 mg/25 μL) suspension of carrageenan (Sigma, St. Louis, MO, USA) in physiological saline (154 mM NaCl). The subplantar tissue of the right hind paw was the injection site for all mice. The contralateral paw (left hind paw) was injected with 25 μL saline solution as the internal control. […] The difference in footpad thickness between the right and left foot indicated the degree of inflammation for each mouse. The change in paw volume, either increase or decrease, was calculated and compared with the control group (dosing vehicle) and analyzed using statistical methods.

[2] = test system: acetic acid-induced abdominal constriction; assay: Acetic acid-induced writhing (Koster) test; format: in vivo, mice
Procedure: Test samples, suspended in a mixture of distilled water and 0.5% sodium carboxymethyl cellulose (CMC), were given orally to the animals. The control group animals received the same experimental handling as those of the test groups, except that the drug treatment was replaced with appropriate volumes of the dosing vehicle. […] One hour after oral administration of test sample, each mouse was injected intraperitoneally with 3% (w/v) acetic acid solution (0.1 mL/10 g, bw). Starting 5 min after the acetic acid injection, the number of muscular contractions on mice were counted for a period of 10 min. A significant reduction in the number of writhings by any treatment as compared to the number of writhings in control animals was considered a positive analgesic response. The analgesic activity was expressed as a percentage change from writhing controls. ASA was used as a reference compound and administered at 200 mg/kg.

stomach = assay: Gastric-ulcerogenic effect (ulcer score); format: in vivo, mice
[3] = test system: lipid peroxidation in stomach; assay: Lipid peroxidation in stomach (TBARS); format: in vivo, mice
LPO = LPO (TBARS) level in liver, kidney, colon, brain; format: in vivo, mice; details: celecoxib 25 mg/kg oral, 72 h
Procedure: (§1) Tissue samples were homogenized with ice-cold 150 mM KCl for the determination of LPO and glutathione (GSH) levels. The LPO levels were assayed by monitoring TBARS formation as described above.

myeloperoxidase (MPO) = assay: MPO activity in liver, kidney, colon, brain; format: in vivo, mice; details: celecoxib 25 mg/kg oral, 72 h
Procedure: MPO is an enzyme that is found predominantly in the azurophilic granules of polymorphonuclear leukocytes (PMN). […] MPO activity was measured in tissues in a procedure similar to that documented by […] et al.

glutathione (GSH) = assay: GSH level in liver, kidney, colon, brain; format: in vivo, mice; details: celecoxib 25 mg/kg oral, 72 h
Procedure: as §1

[4] = test system: superoxide dismutase (SOD); assay: SOD activity in liver, kidney, colon, brain; format: in vivo, mice; details: celecoxib 25 mg/kg oral, 72 h
Procedure: SOD is a major antioxidant enzyme found in cells, which protect cells from oxidative stress. SOD activity in the tissue samples was measured according to the previously described method.

[5] = target: T1, HCV NS5B RNA dependent RNA polymerase (Hepatitis C virus genotype 1b, UniProt P26663); assay: NS5B inhibition assay (primer dependent elongation, poly rA-U12); format: biochemical
T1 construct: HCV NS5B RNA dependent RNA polymerase activity
Procedure: The compounds 1a–e and 2a–e were reconstituted in DMSO as 50 mM stocks, and serially diluted in DMSO to obtain working stocks. Wedelolactone, a known inhibitor of HCV NS5B activity, was employed as a reference compound. Preliminary screening was carried out at 100 μM to identify a wider range of compounds.
All synthesized compounds were evaluated for their effect on HCV NS5B RNA dependent RNA polymerase activity in primer dependent elongation assays as previously described. Activity of NS5B in the absence of the inhibitor but containing an equivalent amount of DMSO (control reaction) was set at 100% and that in the presence of the inhibitor was quantified relative to this control.

[6] = brain, series with 1a 100 mg/kg
[7] = brain, series with 1a 200 mg/kg
[8] = colon, series with 1a 100 mg/kg
[9] = colon, series with 1a 200 mg/kg
[10] = kidney, series with 1a 100 mg/kg
[11] = kidney, series with 1a 200 mg/kg
[12] = liver, series with 1a 100 mg/kg
[13] = liver, series with 1a 200 mg/kg

T1 sequence (P26663 2420-3010): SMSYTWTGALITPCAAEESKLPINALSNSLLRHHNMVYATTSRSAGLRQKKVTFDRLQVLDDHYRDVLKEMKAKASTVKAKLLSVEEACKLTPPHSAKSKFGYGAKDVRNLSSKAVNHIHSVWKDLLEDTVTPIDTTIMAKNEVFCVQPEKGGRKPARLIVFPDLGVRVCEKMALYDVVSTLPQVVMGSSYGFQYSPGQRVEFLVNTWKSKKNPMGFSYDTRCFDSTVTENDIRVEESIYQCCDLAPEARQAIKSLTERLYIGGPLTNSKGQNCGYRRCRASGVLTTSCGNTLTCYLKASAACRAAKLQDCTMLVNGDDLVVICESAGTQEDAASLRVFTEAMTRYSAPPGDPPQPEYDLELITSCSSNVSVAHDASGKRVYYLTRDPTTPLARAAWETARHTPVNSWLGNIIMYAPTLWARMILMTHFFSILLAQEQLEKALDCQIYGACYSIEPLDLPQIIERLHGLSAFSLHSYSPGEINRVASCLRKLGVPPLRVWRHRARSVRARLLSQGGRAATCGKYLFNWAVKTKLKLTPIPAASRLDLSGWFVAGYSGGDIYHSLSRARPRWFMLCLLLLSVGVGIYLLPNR

Cc1ccc(-c2cc(C(F)(F)F)nn2-c2ccc(S(N)(=O)=O)cc2)cc1 [Celecoxib, 4-[5-(4-methylphenyl)-3-(trifluoromethyl)-1H-pyrazole-1-yl]benzene-sulfonamide, reference compound]
Swelling in thickness ± SEM ([1]; 25 mg/kg per os, 90 min): 57.0 ± 6.9 × 10^−2 mm | Swelling in thickness ± SEM ([1]; 25 mg/kg per os, 180 min): 42.0 ± 3.3 × 10^−2 mm | percent inhibitory activity ([1]; 25 mg/kg per os, 180 min): 54.3% | Swelling in thickness ± SEM ([1]; 25 mg/kg per os, 270 min): 94.0 ± 10.4 × 10^−2 mm | Swelling in thickness ± SEM ([1]; 25 mg/kg per os, 360 min): 103.0 ± 7.5 × 10^−2 mm | Writhing test (% inh.) ([2]; 25 mg/kg oral): 54% | Writhing test (Mean ± SEM) ([2]; 25 mg/kg oral): 8.0 ± 1.3 | Ulcer score (stomach; celecoxib 25 mg/kg): 0/5 | Lipid peroxidation ([3]; celecoxib 25 mg/kg): 417.8 ± 23.3 nmol TBARS/g wet weight | LPO (LPO; [6]): 8.18 ± 2.16 nmol/g tissue | LPO (LPO; [7]): 8.26 ± 1.01 nmol/g tissue | LPO (LPO; [8]): 7.12 ± 0.26 nmol/g tissue | LPO (LPO; [9]): 10.48 ± 2.69 nmol/g tissue | LPO (LPO; [10]): 11.12 ± 2.41 nmol/g tissue | LPO (LPO; [11]): 11.30 ± 2.52 nmol/g tissue | LPO (LPO; [12]): 9.56 ± 1.80 nmol/gtissue | LPO (LPO; [13]): 11.74 ± 2.25 nmol/gtissue | MPO (myeloperoxidase (MPO); [6]): 0.60 ± 0.23 U/gtissue | MPO (myeloperoxidase (MPO); [7]): 1.48 ± 0.46 U/gtissue | MPO (myeloperoxidase (MPO); [8]): 0.52 ± 0.26 U/gtissue | MPO (myeloperoxidase (MPO); [9]): 0.46 ± 0.26 U/gtissue | MPO (myeloperoxidase (MPO); [10]): 3.36 ± 1.57 U/g tissue | MPO (myeloperoxidase (MPO); [11]): 4.75 ± 1.59 U/g tissue | MPO (myeloperoxidase (MPO); [12]): 0.63 ± 0.30 U/gtissue | MPO (myeloperoxidase (MPO); [13]): 0.19 ± 0.06 U/gtissue | GSH (glutathione (GSH); [6]): 22.36 ± 2.45 µmol/g tissue | GSH (glutathione (GSH); [7]): 20.2 ± 3.26 µmol/g tissue | GSH (glutathione (GSH); [8]): 28.06 ± 1.45 µmol/g tissue | GSH (glutathione (GSH); [9]): 26.42 ± 3.46 µmol/g tissue | GSH (glutathione (GSH); [10]): 22.24 ± 4.17 µmol/g tissue | GSH (glutathione (GSH); [11]): 21.68 ± 5.56 µmol/g tissue | GSH (glutathione (GSH); [12]): 20.58 ± 4.25 µmol/g tissue | GSH (glutathione (GSH); [13]): 22.14 ± 1.04 µmol/g tissue | SOD [4, 6]: 24.84 ± 10.65 U/g tissue | SOD [4, 7]: 20.41 ± 13.73 U/g tissue | SOD [4, 8]: 16.85 ± 5.24 U/g tissue | SOD [4, 9]: 19.04 ± 5.60 U/g tissue | SOD [4, 10]: 17.79 ± 7.47 U/g tissue | SOD [4, 11]: 16.83 ± 9.71 U/g tissue | SOD [4, 12]: 22.78 ± 14.45 U/g tissue | SOD [4, 13]: 13.60 ± 11.98 U/g tissue | Anti-NS5B Activity (% Inh., 100 µM) ([5]; 100 µM): 9.5% | inhibition at 100 µM ([5]; read-out: Anti-NS5B Activity (% Inh., 100 µM), 100 µM): ~10%

Cc1ccc(-c2cc(C(F)(F)F)nn2-c2ccc(S(=O)(=O)/N=C3\SCC(=O)N3Cc3ccccc3)cc2)cc1 [Compound 2c, N-(3-Benzyl-4-oxo-1,3-thiazolidin-2-yldene)-4-[5-(4-methylphenyl)-3-(trifluoromethyl)-1H-pyrazol-1-yl]benzenesulfonamide]
Swelling in thickness ± SEM ([1]; 50 mg/kg per os, 90 min): 65.0 ± 6.1 × 10^−2 mm | percent inhibitory activity ([1]; 50 mg/kg per os, 90 min): 9.7% | Swelling in thickness ± SEM ([1]; 50 mg/kg per os, 180 min): 74.0 ± 8.8 × 10^−2 mm | percent inhibitory activity ([1]; 50 mg/kg per os, 180 min): 19.5% | Swelling in thickness ± SEM ([1]; 50 mg/kg per os, 270 min): 95.0 ± 10.0 × 10^−2 mm | percent inhibitory activity ([1]; 50 mg/kg per os, 270 min): 21.4% | Swelling in thickness ± SEM ([1]; 50 mg/kg per os, 360 min): 110.0 ± 7.1 × 10^−2 mm | percent inhibitory activity ([1]; 50 mg/kg per os, 360 min): 14.7% | Swelling in thickness ± SEM ([1]; 100 mg/kg per os, 90 min): 83.4 ± 8.7 × 10^−2 mm | Swelling in thickness ± SEM ([1]; 100 mg/kg per os, 180 min): 90.6 ± 11.7 × 10^−2 mm | Swelling in thickness ± SEM ([1]; 100 mg/kg per os, 270 min): 91.7 ± 16.7 × 10^−2 mm | percent inhibitory activity ([1]; 100 mg/kg per os, 270 min): 24.2% | Swelling in thickness ± SEM ([1]; 100 mg/kg per os, 360 min): 118.2 ± 7.1 × 10^−2 mm | percent inhibitory activity ([1]; 100 mg/kg per os, 360 min): 8.3% | Swelling in thickness ± SEM ([1]; 200 mg/kg per os, 90 min): 69.5 ± 8.3 × 10^−2 mm | percent inhibitory activity ([1]; 200 mg/kg per os, 90 min): 3.4% | Swelling in thickness ± SEM ([1]; 200 mg/kg per os, 180 min): 75.6 ± 8.3 × 10^−2 mm | percent inhibitory activity ([1]; 200 mg/kg per os, 180 min): 17.8% | Swelling in thickness ± SEM ([1]; 200 mg/kg per os, 270 min): 133.2 ± 14.3 × 10^−2 mm | Swelling in thickness ± SEM ([1]; 200 mg/kg per os, 360 min): 120.1 ± 5.3 × 10^−2 mm | percent inhibitory activity ([1]; 200 mg/kg per os, 360 min): 6.9% | analgesic activity (in words) ([2]; 100 mg/kg): not statistically significant | Writhing test (% inh.) ([2]; 100 mg/kg oral): 32.2% | Writhing test (Mean ± SEM) ([2]; 100 mg/kg oral, writhings counted 10 min from 5 min after acetic acid): 11.8 ± 1.4 | Ulcer score (stomach; 200 mg/kg p.o., animals with lesions/animals): 0/5 | Lipid peroxidation ([3]; 100 mg/kg, 8 h after analgesic test): 330.4 ± 9.7 nmol TBARS/g wet weight | inhibition at 100 µM ([5]; read-out: Anti-NS5B Activity (% Inh., 100 µM)): 19.4% | melting point: 250 °C
